Laboratory results taken from article PMC11062922 (Nature Chemical Biology, 2023).
Read-outs that look alike come from different tables or passages of the source.

Key:
ACAD11 = biological target: T1, ACAD11 (Homo sapiens, UniProt Q709F0); experiment: Kinobeads two-dose competition binding: ACAD11; conditions: sheet CATDS matrix 2; Gene Name ACAD11
T1 construct: endogenous in cells
T1 sequence (Q709F0 1-780): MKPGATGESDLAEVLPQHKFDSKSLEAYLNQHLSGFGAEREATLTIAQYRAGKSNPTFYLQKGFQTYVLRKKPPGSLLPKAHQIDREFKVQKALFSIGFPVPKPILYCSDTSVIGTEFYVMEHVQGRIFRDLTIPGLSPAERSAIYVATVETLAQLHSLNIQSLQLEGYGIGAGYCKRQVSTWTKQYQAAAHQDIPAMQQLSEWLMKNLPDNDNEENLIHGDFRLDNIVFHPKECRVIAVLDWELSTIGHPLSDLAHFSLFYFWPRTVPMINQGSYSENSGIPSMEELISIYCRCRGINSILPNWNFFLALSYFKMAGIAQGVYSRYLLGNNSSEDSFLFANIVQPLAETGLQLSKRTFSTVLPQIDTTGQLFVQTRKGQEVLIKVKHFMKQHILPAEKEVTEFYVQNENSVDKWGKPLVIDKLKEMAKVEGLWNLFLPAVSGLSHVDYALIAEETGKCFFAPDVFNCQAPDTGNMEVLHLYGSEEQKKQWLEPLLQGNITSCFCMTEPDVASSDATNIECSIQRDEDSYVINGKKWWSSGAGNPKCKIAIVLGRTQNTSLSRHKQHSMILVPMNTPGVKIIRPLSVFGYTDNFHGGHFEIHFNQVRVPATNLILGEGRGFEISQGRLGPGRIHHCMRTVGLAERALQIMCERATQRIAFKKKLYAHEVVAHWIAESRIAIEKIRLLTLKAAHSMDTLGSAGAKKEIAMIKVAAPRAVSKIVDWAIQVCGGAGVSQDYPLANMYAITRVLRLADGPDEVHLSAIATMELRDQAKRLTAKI

ABL2 = biological target: T2, ABL2 (Homo sapiens, UniProt P42684); experiment: Kinobeads two-dose competition binding: ABL2; conditions: sheet CATDS matrix 2; Gene Name ABL2
T2 construct: endogenous in cells

ABL1 = ABL1 (Homo sapiens, UniProt P00519); experiment: Kinobeads two-dose competition binding: ABL1; conditions: sheet CATDS matrix 2; Gene Name ABL1
AAK1 = biological target: T3, AAK1 (Homo sapiens, UniProt Q2M2I8); experiment: Kinobeads two-dose competition binding: AAK1; conditions: for CATDS: sheet CATDS matrix 2, Gene Name AAK1; for potency estimated from few doses: read-out: Kinobeads Drugmatrix - all: apparent Kd, AAK1;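 as to all read-outs here: kinobeads competition pulldown from cell lysate, compound preincubated 45 min at 4 °C, bead-bound protein measured by label-free mass spectrometry against DMSO vehicle control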
T3 construct: to maximize the representation of endogenous proteins; endogenous in cells

ACOX1 = biological target: T4, ACOX1 (Homo sapiens, UniProt Q15067); experiment: Kinobeads two-dose competition binding: ACOX1; conditions: sheet CATDS matrix 2; Gene Name ACOX1;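 also: competition of compounds with immobilized broad-spectrum kinase inhibitor beads in cell lysate at 100 and 1,000 nM, 45 min at 4 °C, bead-bound protein quantified by label-free MS versus DMSO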
T4 construct: endogenous in cells
T4 sequence (Q15067 1-660): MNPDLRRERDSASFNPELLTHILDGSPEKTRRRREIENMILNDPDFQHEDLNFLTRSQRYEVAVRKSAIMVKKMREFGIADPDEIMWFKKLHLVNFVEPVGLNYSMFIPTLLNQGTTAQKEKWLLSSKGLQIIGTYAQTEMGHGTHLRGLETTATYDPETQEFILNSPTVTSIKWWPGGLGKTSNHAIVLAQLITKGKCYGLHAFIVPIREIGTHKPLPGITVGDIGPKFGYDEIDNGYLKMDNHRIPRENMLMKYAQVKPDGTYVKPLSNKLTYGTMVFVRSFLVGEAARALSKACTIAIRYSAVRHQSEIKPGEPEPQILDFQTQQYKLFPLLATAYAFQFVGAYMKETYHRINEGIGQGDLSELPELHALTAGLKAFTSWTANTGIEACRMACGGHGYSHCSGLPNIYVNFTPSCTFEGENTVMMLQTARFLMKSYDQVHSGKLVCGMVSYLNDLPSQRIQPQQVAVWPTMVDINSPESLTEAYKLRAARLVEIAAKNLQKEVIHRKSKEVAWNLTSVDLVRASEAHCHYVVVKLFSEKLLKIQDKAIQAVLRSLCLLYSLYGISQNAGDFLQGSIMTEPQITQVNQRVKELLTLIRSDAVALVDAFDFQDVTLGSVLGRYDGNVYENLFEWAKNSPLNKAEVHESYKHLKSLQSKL

[1] = sheet "Kinobeads Drugmatrix - all", unit inferred, same values below 1000 recur in sheet "nanomolar"

T3 sequence (Q2M2I8 whole entry): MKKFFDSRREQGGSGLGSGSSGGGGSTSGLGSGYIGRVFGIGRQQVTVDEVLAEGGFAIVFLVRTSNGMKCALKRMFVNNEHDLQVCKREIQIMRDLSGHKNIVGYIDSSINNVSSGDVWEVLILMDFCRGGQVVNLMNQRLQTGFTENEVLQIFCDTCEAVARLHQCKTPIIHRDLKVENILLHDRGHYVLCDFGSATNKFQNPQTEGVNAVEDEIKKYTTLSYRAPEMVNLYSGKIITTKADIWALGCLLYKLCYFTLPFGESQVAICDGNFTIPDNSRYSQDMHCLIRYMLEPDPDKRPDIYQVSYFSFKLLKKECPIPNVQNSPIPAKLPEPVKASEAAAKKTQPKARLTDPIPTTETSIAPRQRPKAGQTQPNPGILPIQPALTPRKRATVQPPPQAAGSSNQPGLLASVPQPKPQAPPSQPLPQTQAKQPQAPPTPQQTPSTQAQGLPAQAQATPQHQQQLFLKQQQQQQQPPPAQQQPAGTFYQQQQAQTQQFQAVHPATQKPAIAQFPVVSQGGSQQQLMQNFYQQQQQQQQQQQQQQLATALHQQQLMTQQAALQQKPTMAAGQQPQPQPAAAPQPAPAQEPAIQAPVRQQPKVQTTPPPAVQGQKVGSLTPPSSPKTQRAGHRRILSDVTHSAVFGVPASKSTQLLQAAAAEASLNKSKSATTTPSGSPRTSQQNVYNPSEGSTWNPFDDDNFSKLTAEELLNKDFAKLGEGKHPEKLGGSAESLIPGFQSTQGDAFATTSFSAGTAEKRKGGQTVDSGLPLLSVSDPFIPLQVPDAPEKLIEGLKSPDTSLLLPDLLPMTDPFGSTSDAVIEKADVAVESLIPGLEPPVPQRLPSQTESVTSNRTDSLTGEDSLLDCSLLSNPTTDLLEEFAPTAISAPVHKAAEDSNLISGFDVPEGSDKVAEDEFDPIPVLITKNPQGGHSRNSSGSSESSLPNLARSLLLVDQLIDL
Chain of ABL1 (P00519 28-1130 limits assumed): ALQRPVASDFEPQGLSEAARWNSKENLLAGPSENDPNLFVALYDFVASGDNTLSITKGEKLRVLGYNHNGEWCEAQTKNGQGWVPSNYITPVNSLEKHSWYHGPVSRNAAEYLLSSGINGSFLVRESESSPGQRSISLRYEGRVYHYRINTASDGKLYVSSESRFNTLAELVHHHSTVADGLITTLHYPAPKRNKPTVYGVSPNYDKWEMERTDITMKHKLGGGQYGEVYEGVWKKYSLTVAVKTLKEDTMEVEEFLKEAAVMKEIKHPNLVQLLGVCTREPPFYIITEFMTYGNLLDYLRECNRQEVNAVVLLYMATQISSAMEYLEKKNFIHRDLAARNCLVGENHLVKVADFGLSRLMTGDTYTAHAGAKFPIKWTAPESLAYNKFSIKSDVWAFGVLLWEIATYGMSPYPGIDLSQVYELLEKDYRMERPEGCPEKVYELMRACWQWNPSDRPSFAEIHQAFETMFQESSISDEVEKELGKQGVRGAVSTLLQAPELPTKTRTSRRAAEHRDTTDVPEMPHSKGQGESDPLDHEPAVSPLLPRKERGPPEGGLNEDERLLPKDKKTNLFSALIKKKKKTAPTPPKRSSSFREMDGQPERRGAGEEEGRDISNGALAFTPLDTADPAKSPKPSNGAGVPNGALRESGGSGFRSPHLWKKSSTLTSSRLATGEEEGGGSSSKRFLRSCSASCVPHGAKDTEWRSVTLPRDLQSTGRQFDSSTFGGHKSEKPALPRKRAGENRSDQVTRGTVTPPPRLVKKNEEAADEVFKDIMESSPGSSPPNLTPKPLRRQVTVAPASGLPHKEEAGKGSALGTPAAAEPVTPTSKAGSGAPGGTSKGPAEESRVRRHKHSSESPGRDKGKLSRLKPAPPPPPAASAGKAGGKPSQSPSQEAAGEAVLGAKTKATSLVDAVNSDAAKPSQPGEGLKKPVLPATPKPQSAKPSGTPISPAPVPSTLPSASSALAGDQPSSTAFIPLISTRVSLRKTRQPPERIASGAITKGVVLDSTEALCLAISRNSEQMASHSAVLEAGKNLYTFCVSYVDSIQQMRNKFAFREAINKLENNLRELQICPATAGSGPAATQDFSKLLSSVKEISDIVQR
T2 sequence (P42684 whole entry): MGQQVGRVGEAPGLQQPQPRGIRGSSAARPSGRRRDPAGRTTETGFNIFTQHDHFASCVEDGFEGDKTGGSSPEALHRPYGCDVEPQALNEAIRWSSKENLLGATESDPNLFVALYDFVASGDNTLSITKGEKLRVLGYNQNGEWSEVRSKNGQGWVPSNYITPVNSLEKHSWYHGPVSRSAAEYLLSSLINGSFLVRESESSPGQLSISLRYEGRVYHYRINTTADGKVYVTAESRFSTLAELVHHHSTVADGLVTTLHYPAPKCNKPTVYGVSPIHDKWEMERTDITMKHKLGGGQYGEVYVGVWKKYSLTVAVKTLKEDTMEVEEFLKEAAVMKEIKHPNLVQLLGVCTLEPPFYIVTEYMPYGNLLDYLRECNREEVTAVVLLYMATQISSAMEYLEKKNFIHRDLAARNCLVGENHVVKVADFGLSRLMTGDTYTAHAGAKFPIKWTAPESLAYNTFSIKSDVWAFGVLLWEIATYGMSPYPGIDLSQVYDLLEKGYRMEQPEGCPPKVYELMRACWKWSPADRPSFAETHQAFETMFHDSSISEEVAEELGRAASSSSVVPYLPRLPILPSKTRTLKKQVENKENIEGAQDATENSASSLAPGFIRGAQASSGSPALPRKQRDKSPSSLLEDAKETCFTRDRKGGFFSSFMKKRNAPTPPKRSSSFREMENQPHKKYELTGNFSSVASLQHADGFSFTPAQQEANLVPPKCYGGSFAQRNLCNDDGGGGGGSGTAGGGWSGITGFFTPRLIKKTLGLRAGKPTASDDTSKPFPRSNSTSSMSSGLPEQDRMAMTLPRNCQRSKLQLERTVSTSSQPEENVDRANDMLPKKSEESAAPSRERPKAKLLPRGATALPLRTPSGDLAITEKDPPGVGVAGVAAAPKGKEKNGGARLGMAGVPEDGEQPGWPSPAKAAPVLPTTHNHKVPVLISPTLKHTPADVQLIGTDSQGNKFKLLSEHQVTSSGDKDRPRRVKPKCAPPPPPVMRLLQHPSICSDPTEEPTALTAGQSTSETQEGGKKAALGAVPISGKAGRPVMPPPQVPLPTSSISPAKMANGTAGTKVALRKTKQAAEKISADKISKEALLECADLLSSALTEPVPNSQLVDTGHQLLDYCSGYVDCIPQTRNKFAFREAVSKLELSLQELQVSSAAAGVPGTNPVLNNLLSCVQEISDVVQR

Row | SMILES | CATDS (ACAD11) | CATDS (ABL2) | CATDS (ABL1) | CATDS (AAK1) | CATDS (ACOX1) | potency estimated from few doses (AAK1) | potency estimated from few doses (AAK1; [1])
1 | COc1cc(N2CCN(C(C)C)CC2)ccc1Nc1nc(Nc2cccc(F)c2C(=O)O)c2cc[nH]c2n1 [GSK1819799A] | 0 | 0 | 0 | 0 | 0 |  | 
2 | CNC(=O)c1c(F)cccc1Nc1nc(Nc2cc3c(cc2OC)CCN3C(=O)CN(C)C)nc2[nH]ccc12 [GSK1838705] | 0 | 0 | 0 | 0 | 0 |  | 
3 | Cc1ccc(NC(=O)c2cccc(N3CCCCC3)c2)cc1-c1ccc(C(=O)NCC2CC2)cc1 [GSK1917008A] | 0 | 0 | 0 | 0 | 0 |  | 
4 | COc1cc2c(cc1Nc1nc(Nc3ccsc3C(N)=O)c3cc[nH]c3n1)N(C(=O)CN(C)C)CCC2 [GSK2110236A] | 0 | 0 | 0 | 0 | 0 |  | 
5 | N#Cc1ccc(CCNc2nccc(-c3cccc(CN4CCNCC4)c3)n2)cc1 [GSK2137462A] | 0 | 0 | 0 | 0 | 0 |  | 
6 | COc1cc2c(cc1Nc1nc(Nc3ccsc3C(N)=O)c3cc[nH]c3n1)N(C(=O)CN(C)C)CCC2(C)C [GSK2163632A] | 0 | 0 | 0 | 0 | 0 |  | 
7 | COc1cc2c(cc1Nc1nc(N3CCc4ccccc43)c3cc[nH]c3n1)N(C(=O)CN(C)C)CC2 [GSK2186269A] | 0 | 0 | 0 | 0 | 0 |  | 
8 | O=c1[nH]ccc2nc(N[C@@H]3CCNC3)nc(Nc3cc(Cl)cc(Cl)c3)c12 [GSK2188764A] | 0 | 0 | 0 | 0.04842 | 0 | 114 nM | 
9 | Cc1cccc(Nc2nc(N[C@H]3CCNC3)ncc2C(N)=O)c1 [GSK2197149A] | 0 | 0 | 0 | 0.1293 | 0 | 64.6 nM | 
10 | CNc1nccc(-c2ccc3c(N)n[nH]c3c2)n1 [GSK2206003A] | 0 | 0 | 0 | 0.118 | 0 |  | 108 nM
11 | COc1cc(C)c(NC(=O)CN(C)C)cc1Nc1nc(Nc2cccc(F)c2C(N)=O)c2cc[nH]c2n1 [GSK2213727A] | 0 | 0 | 0 | 0 | 0 |  | 
12 | CNC(=O)c1ncccc1Nc1nc(Nc2cc3c(cc2OC)CCCN3C(=O)CN(C)C)nc2[nH]ccc12 [GSK2220400A] | 0 | 0 | 0 | 0 | 0 |  | 
13 | CC(C)Nc1cc(-c2ccc3c(N)n[nH]c3c2)nc(N)n1 [GSK2221681A] | 0 | 0 | 0 | 0.2807 | 0 |  | 149 nM
14 | CNc1cc(-c2ccc3c(N)n[nH]c3c2)nc(N)n1 [GSK2224810A] | 0 | 0 | 0 | 0.04187 | 0 |  | 
15 | Nc1nc(Nc2ccccc2)cc(-c2ccc3c(N)n[nH]c3c2)n1 [GSK2225749A] | 0 | 0 | 0 | 0.2514 | 0 |  | 
16 | Nc1nc(-c2ccc3c(N)n[nH]c3c2)cc(N2CCCCC2)n1 [GSK2228768A] | 0 | 0 | 0 | 0.1964 | 0 |  | 
